The values below come from patent publication US6476065B2, “Discalamide compounds and their use as anti-proliferative agents” (priority 2000, dated 2002).

The test system of series [1] is A549 human lung adenocarcinoma cell line. Briefly: A549 cytotoxicity (antiproliferative) MTT assay. The conditions noted are these: A549 human lung adenocarcinoma cells, 72 hours exposure. Format: cell-based. The procedure:
(§1) Compounds were analyzed as to their effects on proliferation of A549 human lung adenocarcinoma and P388 murine leukemia cell lines. P388 cells were obtained from Dr. R. Camalier, National Cancer Institute, Bethesda, Md., and A549 cells were obtained from American Type Culture Collection, Rockville, Md. All cell lines were maintained in Roswell Park Memorial Institute (RPMI) medium 1640 supplemented with 100 U/ml penicillin, […], 60 […], 18 mM HEPES, 0.05 mg/ml gentamicin (Life Technologies, Gaithersburg, Md.) and 10% fetal bovine serum and cultured in plastic tissue culture flasks at 37° C. in humidified air containing 5% CO2. Stock cultures of P388 cells were subcultured 1:20 in fresh tissue culture medium (TCM) every 2 to 3 days. Stock cultures of A549 cells were subcultured 1:10 every 3 to 4 days.
(§2) To assess the antiproliferative effects of agents against P388 cells, 200 μl cultures (96-well tissue culture plates, Nunc, Denmark) were established at 2×10^4 cells/ml in TCM or TCM containing the test agent at 0.03-5.0 μg/ml. After 48 hours exposure, P388 cells were enumerated using 3-[4,5-dimethylthiazol-2-yl]-2,5-diphenyltetrazolium bromide (MTT) as described in the literature (Alley, M. D. et al. [1988] Cancer Res. 48:589). A549 cells were enumerated in the same manner using 200 μl cultures established at 3×10^4 cells/ml and exposing the cultures to the test agents for 72 hours. The results were expressed as percent inhibition compared to the negative (no drug) control. Positive drug controls of varying dilutions of 5-fluorouracil and adriamycin (Sigma Chemical Co., St. Louis, Mo.) were included to monitor drug sensitivity of the cell line.
(§3) To quantitate the effects of compounds on cell proliferation and resulting IC50 values, 75 μl of warm growth media containing 5 mg/ml MTT is added to each well, cultures returned to the incubator, and left undisturbed for 3 hours. To spectrophotometrically quantitate formation of reduced formazan, plates are centrifuged (500×g, 10 minutes), culture fluids removed by aspiration, and 200 μl of acidified isopropanol (2 ml concentrated HC1/liter isopropanol) added per well. The absorbance of the resulting solutions is measured in a plate reader (Tecan Spectra SLT; TECAN U.S., Research Triangle Park, NC) at 570 nm with a 650 nm reference filter. The absorbance of tests wells is divided by the absorbance of drug-free wells, and the concentration of agent that results in 50% of the absorbance of untreated cultures (IC50) is determined by linear regression of logit-transformed data (Finney, D. J. [1978] Statistical Method in Biological Assay, third ed., pp.316-348, Charles Griffin Co., London). A linear relationship between tumor cell number and formazan production has been routinely observed over the range of cell densities observed in these experiments. The two standard drug controls (indicated above) are included in each assay as a check to monitor the drug sensitivity of each of the cell lines and IC50 values are determined for each drug-cell combination.
In general terms: Formazan colour is commonly taken as a measure of viable cells.

The subject of series [2] is P388 murine leukemia cell line. The series is described as follows: P388 cytotoxicity (antiproliferative) MTT assay. It is filed as cell-based. The conditions noted are these: P388 murine leukemia cells, 48 hours exposure. The method, then:
as §1, §2, §3

Series [3] concerns NCI in vitro tumor cell line panel (approximately 60 cell lines). Briefly: National Cancer Institute's in vitro tumor cell line panel. Format: cell-based, human. The source says:
Discalamide A was additionally evaluated for its anti-proliferative effects utilizing the National Cancer Institute's in vitro tumor cell line panel. The results of these analyses are shown in the mean graphs presented as FIG. 3. The data are presented using known and accepted measurements of “lethal concentration-50” (LC50) where 50% of the cells are killed.

The term IC50 denotes the point on the concentration scale where inhibition reaches its midpoint. In the case of `C=C1C[C@](OC)([C@H](O)C(=O)N[C@H]2OCO[C@H]3[C@@H]2O[C@H](C[C@H](O)CO)C(C)(C)[C@@H]3OC)O[C@H](C)[C@@H]1C` [Mycalamide A], the figures for the half-maximal inhibitory concentration (IC50) in series [1] and in series [2] were 3.6 nM and 5.2 nM, respectively.

`C=C(CCC(C)C)COC(=O)[C@H](O)C/C=C\C[C@@H]1O[C@@H]2/C=C/C/C=C/C(C)=C\[C@H]3O[C@@H](C/C=C/C=C/C(=O)O[C@H](C2)[C@@]1(C)CO)C[C@H](O)[C@H]3C` [Lasonolide A]: the half-maximal inhibitory concentration (IC50) in series [1] came out at 57 nM; in series [2], 2.8 nM.

Regarding `C=C1C[C@](OC)([C@H](O)C(=O)N[C@H]2OCO[C@H]3[C@@H]2O[C@H](C[C@H](O)CCC/C=C/C=C/C=C/C(=O)N[C@@H](CCCNC(=N)N)C(=O)O)C(C)(C)[C@@H]3OC)O[C@H](C)[C@@H]1C` [Onnamide A], the IC50 in series [1] amounted to 170 nM; in series [2], 2.4 nM.

Take `C=C1C[C@](OC)([C@H](O)C(=O)N[C@H]2OCO[C@H]3[C@@H]2O[C@H](CC(/C=C/C/C=C/C=C/C(=O)O)OC)C(C)(C)[C@@H]3OC)O[C@H](C)[C@@H]1C` (some centres unmarked) [2GP111 (Discalamide A), Discalamide A]: the results for the IC50 in series [1] and in series [2] were 1.5 nM and 0.1 nM, respectively. For the same molecule, the “effectiveness according to LC50 measurements for the NCI cell lines” value in series [3] (HL-60(TB), K562, COLO 205, HCC-2998, SF-295, SNB-19, LOX IMVI, MALME-3M, M14, SK-MEL-2, SK-MEL-28, SK-MEL-5, UACC-257, CAKI-1, HS578T, MDA-MB-231/ATCC) is “particularly effective”. Also, the “selective cytotoxicity by LC50 mean graphs (number of cell lines)” value in series [3] (of approximately 60 cell lines tested, bars to the right of the midline, FIG. 3) is listed as 16 cell lines.

Consider “Discalamide A methylester [2GP313 (Discalamide A-methylester)]”, for which the IC50 in series [1] was found to be 0.8 nM; in series [2] it was 0.3 nM.

For the molecule `C=C/C=C\[C@H](C)[C@H](OC(N)=O)[C@@H](C)[C@H](O)[C@@H](C)C/C(C)=C\[C@H](C)[C@@H](O)[C@@H](C)/C=C\[C@@H](O)C[C@@H]1OC(=O)[C@H](C)[C@@H](O)[C@H]1C` [Discodermolide], the values for the half-inhibitory concentration (IC50) in series [1] and in series [2] (Mus musculus) were 25 nM and 55 nM, respectively.

Regarding `COc1cc2c(cc1O)CCN[C@]21CS[C@@H]2c3c(OC(C)=O)c(C)c4c(c3[C@H](COC1=O)N1[C@@H]2[C@H]2c3c(cc(C)c(OC)c3O)C[C@@H]([C@@H]1O)N2C)OCO4` [Ecteinascidin 743], the IC50 in series [2] stood at 1.7 nM.

Discalamide B [2GP311 (Discalamide B)]: the concentration for half-maximal inhibition (IC50) in series [1] was determined as 3.2 nM; in series [2], 7.3 nM.

Take Ecteinascidin 729: the half-inhibitory concentration (IC50) in series [2] was found to be 1.2 nM.

Regarding `C=C1C[C@](OC)([C@H](O)C(=O)N[C@H]2OCO[C@H]3[C@@H]2O[C@H](C[C@@H](CO)OC)C(C)(C)[C@@H]3OC)O[C@H](C)[C@@H]1C` [Mycalamide B], the IC50 in series [1] turned out to be 0.6 nM; in series [2], 1.3 nM.
